From PMC5411871 (African Journal of Traditional, Complementary, and …, 2016)

Target: T1, Lipoxygenase (type I-B) (Glycine max, UniProt P08170)
T1 sequence (P08170 1-839): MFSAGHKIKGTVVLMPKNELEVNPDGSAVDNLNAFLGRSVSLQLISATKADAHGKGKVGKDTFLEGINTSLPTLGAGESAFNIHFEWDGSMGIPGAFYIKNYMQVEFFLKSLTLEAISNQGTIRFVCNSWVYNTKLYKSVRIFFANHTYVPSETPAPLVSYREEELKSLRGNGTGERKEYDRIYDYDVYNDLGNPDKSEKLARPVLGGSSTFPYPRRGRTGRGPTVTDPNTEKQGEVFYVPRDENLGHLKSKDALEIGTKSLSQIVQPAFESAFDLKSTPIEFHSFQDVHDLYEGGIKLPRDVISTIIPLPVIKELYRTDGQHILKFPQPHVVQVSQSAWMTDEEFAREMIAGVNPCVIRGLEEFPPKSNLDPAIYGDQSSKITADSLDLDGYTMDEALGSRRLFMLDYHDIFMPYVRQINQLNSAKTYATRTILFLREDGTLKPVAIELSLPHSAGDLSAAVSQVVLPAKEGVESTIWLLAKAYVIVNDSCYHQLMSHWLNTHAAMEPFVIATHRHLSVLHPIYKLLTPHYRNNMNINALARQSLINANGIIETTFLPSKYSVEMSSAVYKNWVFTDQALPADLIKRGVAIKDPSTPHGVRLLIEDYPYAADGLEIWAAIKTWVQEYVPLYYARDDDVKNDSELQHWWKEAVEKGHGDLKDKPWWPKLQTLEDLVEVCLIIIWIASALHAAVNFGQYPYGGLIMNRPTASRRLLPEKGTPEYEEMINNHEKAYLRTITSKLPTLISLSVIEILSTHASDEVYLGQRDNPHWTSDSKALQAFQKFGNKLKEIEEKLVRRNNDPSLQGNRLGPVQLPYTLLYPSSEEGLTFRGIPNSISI
Experiment: absorbance at […] nm, linoleic acid oxidation
Format: biochemical

SMILES | IC50
C[C@H]1C(=O)CC[C@@H]2[C@]1(C)CC[C@H]1[C@@]2(C)CC[C@@]2(C)[C@@H]3CC(C)(C)CC[C@]3(C)CC[C@]12C [compound 1, friedelin] | 57.3 µM
CC1(C)C[C@@H](O)[C@]2(C)CC[C@]3(C)C(=CC[C@@H]4[C@@]5(C)CC[C@H](O)C(C)(C)[C@@H]5CC[C@]43C)[C@@H]2C1 [compound 3, sopharadiol] | 54 µM
